{
  "source": "patent US5763479A",
  "about": "“Naphthoquinone derivatives for the treatment of chronic inflammation” (KS Biomedix Ltd., priority 1991, dated 1998)",
  "key": {"[1]": {"experiment": "redox potential (E1/8) against a standard calomel electrode", "format": "physicochemical", "conditions": "for E1/2 (mV): Table 2"}, "G6PD [2]": {"biological_target": "T1, G6PD (Homo sapiens, UniProt P11413)", "T1 sequence (P11413 2-515 limits assumed)": "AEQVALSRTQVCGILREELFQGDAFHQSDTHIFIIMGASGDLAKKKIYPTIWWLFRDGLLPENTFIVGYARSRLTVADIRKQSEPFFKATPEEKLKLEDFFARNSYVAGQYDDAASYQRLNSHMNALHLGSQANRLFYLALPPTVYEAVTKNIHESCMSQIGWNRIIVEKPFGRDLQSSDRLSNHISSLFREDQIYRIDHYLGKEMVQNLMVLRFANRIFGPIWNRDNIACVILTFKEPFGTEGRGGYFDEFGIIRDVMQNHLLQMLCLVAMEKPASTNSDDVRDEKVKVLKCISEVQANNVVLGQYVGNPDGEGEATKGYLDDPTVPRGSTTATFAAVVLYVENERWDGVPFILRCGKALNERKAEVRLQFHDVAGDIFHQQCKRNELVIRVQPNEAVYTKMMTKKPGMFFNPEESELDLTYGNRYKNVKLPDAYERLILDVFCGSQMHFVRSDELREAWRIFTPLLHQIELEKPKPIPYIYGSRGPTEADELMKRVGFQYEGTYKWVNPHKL", "experiment": "decrease in G6PD activity in synovial lining cells of human rheumatoid tissue maintained in vitro", "format": "cell-based", "parameters": "synovial lining cells of human rheumatoid tissue maintained in vitro; from tissue; host or cells: human rheumatoid synovial tissue (synovial lining cells), maintained in vitro", "conditions": "mean±SEM", "description": "The percentage decreases in […] activity (mean±SEM) in the synovial lining cells of human rheumatoid tissue maintained in vitro, induced by naphthoquinone of formula I (R=H, X=O), including compounds outside the scope of the invention, are given in Table 2."}, "[3]": {"system": "6-phosphogluconolactonase (6PGL)", "experiment": "6PGL in synovial lining cells of arthritic rabbits (Example 2)", "format": "in vivo, rabbit", "conditions": "25 mg/kg orally twice a week, six weeks; olive oil alone 2.5±0.3", "method": "(§1) In each of separate groups of six, rabbits were treated with the same volume of either olive oil alone or dimethoxynaphthoquinone in olive oil for six weeks after the initiation of arthritis (six weeks after challenge). The treatment was 25 mg/kg orally twice a week.\n(§2) The rabbits were investigated for the concentration of G6PD, 6PGL and 6PGD in synovial lining cells. The respective mean values (±SEM) for the treatment of olive oil alone were 15.4±1.9, 2.5±0.3 and 8.2±1.1; the results for those treated with dimethoxynaphthoquinone were 7.7±1.2, negligible and 4.6±1.1."}, "[4]": {"system": "glucose 6-phosphate dehydrogenase (G6PD)", "experiment": "G6PD in synovial lining cells of arthritic rabbits (Example 2)", "format": "in vivo, rabbit", "method": "as §1, §2"}, "[5]": {"system": "6-phosphogluconate dehydrogenase (6PGD)", "experiment": "6PGD in synovial lining cells of arthritic rabbits (Example 2)", "format": "in vivo, rabbit", "conditions": "25 mg/kg orally twice a week, six weeks; olive oil alone 8.2±1.1", "method": "as §1, §2"}, "lysosomal latency": {"system": "lysosomal latency", "experiment": "lysosomal latency before and after intra-articular injection in patients with chronic arthritic inflammation", "format": "in vivo, human", "conditions": "before injection 0, normal around 40%", "method": "(§3) Two human patients suffering from chronic arthritic inflammation were given intra-articular injections of menadione bisulphite. The G6PD activity (mean integrated extinction ×10^3 /10 min) and lysosomal latency (% bound activity) were measured before and after injection. The G6PD activity decreased from 423 to 188 in one case and from 245 to 127 in the other; the lysosomal latency increased, respectively from 0 to 13 and from 0 to 31 (normal values are around 40% latency)."}, "[6]": {"experiment": "chemical stability and reactivity", "format": "physicochemical", "conditions": "no double bond between positions 2 and 3"}, "G6PD [7]": {"biological_target": "T1, G6PD", "experiment": "G6PD activity before and after intra-articular injection in patients with chronic arthritic inflammation", "format": "in vivo", "method": "as §3"}, "chronic RA": {"system": "chronic RA", "experiment": "therapeutic efficacy by intra-articular injection in chronic RA patients", "format": "in vivo, human", "conditions": "intra-articular injections", "description": "Other soluble compounds of the invention are menadiol diphosphate, menadiol disulphate and 2-methyl-1,4-naphthohydroquinone bis(hydrogen succinate), sodium salt."}, "[8]": {"system": "glucose 6-phosphate dehydrogenase (G6PD)", "experiment": "G6PD activity in synovial lining and desquamating cells of arthritic rabbits treated with menadione epoxide", "format": "in vivo, rabbit", "method": "(§4) Twenty-two female New Zealand white rabbits (initial weight 1.5-2.0 kg) were immunised subcutaneously between the scapulae, with 0.5 ml of complete Freund's adjuvant containing 2.5 mg of ovalbumin (Sigma). A booster inoculation was given two weeks later. Four weeks after this, the right knee was challenged with an intra-articular injection (0.5 ml) of sterile saline containing ovalbumin (10 mg/ml). One week before this; twice a week for the next two weeks; and weekly thereafter, the temperature of both knees was measured on the medial side of the patella by means of a Digi-Sense thermocouple thermometer (Cole-Palmer Instrument Co., Chicago, Ill., U.S.A.). They were skin-tested before challenge to ensure that the cell-mediated immunity was equivalent in the treated and control rabbits. […] They were killed in pairs, treated and untreated, by intravenous injection of phenobarbitone sodium at various intervals from five to nine weeks later. After removal, the synovial tissue was cut into pieces of not greater than 0.5 cm^3; these were immersed for up to 1 min in a 5% solution of polyvinyl alcohol containing 5% CaCl2.2H2 O (Chayen et al, 1973) and then chilled to -70 ° C. in n-hexane (BDH: low in aromatic hydrocarbons grade). The tissue was stored in dry tubes at -70° C. and examined within two weeks. […]"}, "[9]": {"system": "6-phosphogluconolactonase (6PGL)", "experiment": "6PGL activity in synovial lining and desquamating cells of arthritic rabbits treated with menadione epoxide", "format": "in vivo, rabbit", "method": "as §4"}, "challenged joint": {"system": "challenged joint", "experiment": "established immune (ovalbumin) arthritis in rabbits, oral menadione epoxide: joint temperature and degree of inflammation", "format": "in vivo, rabbit (New Zealand white)", "method": "Twenty-two female New Zealand white rabbits (initial weight 1.5-2.0 kg) were immunised subcutaneously between the scapulae, with 0.5 ml of complete Freund's adjuvant containing 2.5 mg of ovalbumin (Sigma). A booster inoculation was given two weeks later. Four weeks after this, the right knee was challenged with an intra-articular injection (0.5 ml) of sterile saline containing ovalbumin (10 mg/ml). One week before this; twice a week for the next two weeks; and weekly thereafter, the temperature of both knees was measured on the medial side of the patella by means of a Digi-Sense thermocouple thermometer (Cole-Palmer Instrument Co., Chicago, Ill., U.S.A.). They were skin-tested before challenge to ensure that the cell-mediated immunity was equivalent in the treated and control rabbits. […] They were killed in pairs, treated and untreated, by intravenous injection of phenobarbitone sodium at various intervals from five to nine weeks later. After removal, the synovial tissue was cut into pieces of not greater than 0.5 cm^3; these were immersed for up to 1 min in a 5% solution of polyvinyl alcohol containing 5% CaCl2.2H2 O (Chayen et al, 1973) and then chilled to -70 ° C. in n-hexane (BDH: low in aromatic hydrocarbons grade). The tissue was stored in dry tubes at -70° C. and examined within two weeks.\nSections were cut (10 μm) in a Bright's cryostat (cabinet temperature of -30° C.) with the knife cooled with solid carbon dioxide. The sections were flash-dried on to slides taken from the ambient temperature of the laboratory (Chayen et al, 1973) and stored briefly in a desiccator before being tested for enzymatic activity.\nDepending on the amount of tissue, sections were taken from up to fifteen regions of each challenged joint and stained with 0.1% toluidine blue in 0.1M acetate buffer, pH 6.1. They were assessed for thickening of the synovial lining cell layer; degree of infiltration by both chronic and acute inflammatory cells; and fibrosis. Each of these criteria was evaluated on a scale that ranged from 0 to ++. A value based on all these criteria was given for the response in each challenged joint and the degree of inflammation of the whole joint was assessed on an arbitrary scale of - to ++."}, "immune arthritis": {"system": "immune arthritis", "conditions": "rabbits fed by gavage, cited from earlier work"}, "solubility": {"experiment": "solubility", "format": "physicochemical"}, "neotetrazolium chloride": {"system": "neotetrazolium chloride", "conditions": "sections of various tissues; compared with phenazine methosulphate; cited from earlier work"}},
  "note": "Where two headings read alike, the source gives them in different places.",
  "data": [
    {"smiles": "CC1=C(SC[C@H](NC(=O)CC[C@H](N)C(=O)O)C(=O)NCC(=O)O)C(=O)c2ccccc2C1=O", "note": "[3-glutathionylmenadione, reference compound]", "values": [
      {"measurement": "E1/2 (mV)", "setting": "[1]", "result": -170, "unit": "mV"},
      {"measurement": "% decrease in G6PD", "setting": "G6PD [2]", "result": "37 ± 13.0", "unit": "%"}
    ]},
    {"smiles": "CC1=C(SCCC(N)C(=O)O)C(=O)c2ccccc2C1=O", "note": "(centres unmarked) [3-homocysteinylmenadione, reference compound]", "values": [
      {"measurement": "E1/2 (mV)", "setting": "[1]", "result": -190, "unit": "mV"},
      {"measurement": "% decrease in G6PD", "setting": "G6PD [2]", "result": "25 ± 9.7", "unit": "%"}
    ]},
    {"smiles": "COC1=C(OC)C(=O)c2ccccc2C1=O", "note": "[dimethoxynaphthoquinone, 2,3-dimethoxy-1,4-naphthoquinone]", "values": [
      {"measurement": "concentration of 6PGL in synovial lining cells (mean ±SEM)", "setting": "[3]", "result": "negligible"},
      {"measurement": "concentration of G6PD in synovial lining cells (mean ±SEM)", "setting": "[4]; 25 mg/kg orally twice a week, six weeks, olive oil alone 15.4±1.9", "result": "7.7±1.2"},
      {"measurement": "effect on all three enzyme activities: G6PD", "setting": "[4]; summary in words for G6PD, 6PGL and 6PGD", "result": "greatly reduced"},
      {"measurement": "E1/2 (mV)", "setting": "[1]", "result": -250, "unit": "mV"},
      {"measurement": "% decrease in G6PD", "setting": "G6PD [2]", "result": "49 ± 14.0", "unit": "%"},
      {"measurement": "concentration of 6PGD in synovial lining cells (mean ±SEM)", "setting": "[5]", "result": "4.6±1.1"}
    ]},
    {"smiles": "CC1=C(C)C(=O)c2ccccc2C1=O", "note": "[dimethylnaphthoquinone, 2,3-dimethyl-1,4-naphthoquinone]", "values": [
      {"measurement": "E1/2 (mV)", "setting": "[1]", "result": -290, "unit": "mV"},
      {"measurement": "% decrease in G6PD", "setting": "G6PD [2]", "result": 61, "unit": "%"}
    ]},
    {"smiles": "CC1(S(=O)(=O)O)CC(=O)c2ccccc2C1=O", "note": "(centres unmarked) [menadione bisulphite, 2-methyl-l,4-dioxotetralin-sulphonate]", "values": [
      {"measurement": "lysosomal latency after injection", "setting": "lysosomal latency; first patient", "result": 13, "unit": "% bound activity"},
      {"measurement": "lysosomal latency after injection", "setting": "lysosomal latency; second patient", "result": 31, "unit": "% bound activity"},
      {"measurement": "redox potential (E1/8) measured in human plasma", "setting": "[1]; human plasma", "result": -640, "unit": "mV"},
      {"measurement": "redox potential compared with menadione", "setting": "[1]; versus menadione", "result": "higher redox potential than menadione"},
      {"measurement": "reactivity with thiols", "setting": "[6]", "result": "unreactive"},
      {"measurement": "G6PD activity after injection", "setting": "G6PD [7]; first patient, before injection 423", "result": "188 mean integrated extinction ×10^3 /10 min"},
      {"measurement": "G6PD activity after injection", "setting": "G6PD [7]; second patient, before injection 245", "result": "127 mean integrated extinction ×10^3 /10 min"},
      {"measurement": "therapeutic efficacy", "setting": "chronic RA", "result": "demonstrated"}
    ]},
    {"smiles": "CC12OC1C(=O)c1ccccc1C2=O", "note": "(centres unmarked) [menadione epoxide]", "values": [
      {"measurement": "G6PD activity in the desquamating cells", "setting": "[8]; desquamating cells, as against 25.5 units in \"rheumatoid\" intact lining cells and 6 units in normal joints", "result": 45.7, "unit": "units"},
      {"measurement": "effect on G6PD activity", "setting": "[8]; synovial lining cells", "result": "decrease both activities towards normal levels"},
      {"measurement": "6PGL activity in the desquamating cells", "setting": "[9]; desquamating cells, despite very elevated G6PD", "result": "no equivalent increase"},
      {"measurement": "effect on 6PGL activity", "setting": "[9]; synovial lining cells", "result": "decrease both activities towards normal levels"},
      {"measurement": "median overall difference in temperature expressed per day (group)", "setting": "challenged joint; from two weeks after treatment until killed, control median 0.589 (0.308 to 0.687), p=0.04", "result": 0.096, "unit": "°C day"},
      {"measurement": "overall degree of inflammation in the challenged joint", "setting": "challenged joint; one of the twelve treated rabbits (totally negative)", "result": "-"},
      {"measurement": "overall difference in temperature between challenged and unchallenged knees, expressed per day (single rabbit)", "setting": "challenged joint; one treated rabbit, from two weeks after start of treatment until killed, 25 mg/kg bi-weekly by gavage, control rabbit 0.7110", "result": 0.096, "unit": "°C"},
      {"measurement": "inflammation assessed by temperature in vivo, visual inspection post mortem and histological examination", "setting": "challenged joint; oral administration, established chronic inflammation", "result": "marked decrease in the inflammation"}
    ]},
    {"smiles": "CC1=CC(=O)c2ccccc2C1=O", "note": "[menadione, 2-methyl-1,4-naphthoquinone]", "values": [
      {"measurement": "chronic inflammation assessed histologically and by enzyme activity in synovial lining cells", "setting": "immune arthritis; versus control animals", "result": "marked diminution"},
      {"measurement": "effect on immune arthritis", "setting": "immune arthritis", "result": "significantly ameliorates"},
      {"measurement": "effect on immune arthritis", "setting": "immune arthritis; listed as Menadione", "result": "effective"},
      {"measurement": "solubility", "setting": "solubility", "result": "lipid soluble"},
      {"measurement": "transfer of reducing equivalents to neotetrazolium chloride", "setting": "neotetrazolium chloride", "result": "as effective as phenazine methosulphate"},
      {"measurement": "E1/2 (mV)", "setting": "[1]", "result": -220, "unit": "mV"},
      {"measurement": "redox potential (E1/8)", "setting": "[1]; recorded against a standard calomel electrode, 90% ethanol-0.005M acetate buffer pH 4.0", "result": -220, "unit": "mV"},
      {"measurement": "% decrease in G6PD", "setting": "G6PD [2]", "result": "38 ± 6.9", "unit": "%"}
    ]},
    {"smiles": "CC1=C(O)C(=O)c2ccccc2C1=O", "note": "[phthiocol]", "values": [
      {"measurement": "E1/2 (mV)", "setting": "[1]", "result": -355, "unit": "mV"},
      {"measurement": "% decrease in G6PD", "setting": "G6PD [2]", "result": "47 ± 11.5", "unit": "%"}
    ]}
  ]
}
